Experimental findings from ChEMBL document CHEMBL1124865, “Synthesis and biological evaluation of a series of parenteral 3'-quaternary ammonium cephalosporins” (J Med Chem, 1990) are described below.

≈ marks a conversion by molar mass, not a printed value.

Common to all, as to assay type: functional
The test system of assay [1] is Enterobacter cloacae. Nature of the assay: Antibacterial activity against Enterobacter cloacae 265A. The note with it: Enterobacter cloacae; read-out: MIC.
Assay [2] deals with Escherichia coli. Nature of the assay: Antibacterial activity against Escherichia coli EC14. The note with it: Escherichia coli; read-out: MIC.
Assay [3] concerns Enterobacter cloacae. Nature of the assay: Antibacterial activity against Enterobacter cloacae EB5. To be noted: Enterobacter cloacae; read-out: MIC.
Assay [4] deals with Escherichia coli. Nature of the assay: Antibacterial activity against Escherichia coli TEM. To be noted: Escherichia coli; read-out: MIC.
The test system of assay [5] is Klebsiella pneumoniae. Nature of the assay: microbe, parasite or virus in culture. To be noted: Klebsiella pneumoniae; read-out: MIC.
Description: Antibacterial activity against Klebsiella pneumoniae 1082E
Assay [6] concerns Klebsiella pneumoniae. The assay can be described thus: Antibacterial activity against Klebsiella pneumoniae X26. To be noted: Klebsiella pneumoniae; read-out: MIC.
Assay [7] relates to Pseudomonas aeruginosa. The assay can be described thus: Antibacterial activity against Pseudomonas aeruginosa X528.
Assay [8] relates to Pseudomonas aeruginosa. The assay can be described thus: Antibacterial activity against Pseudomonas aeruginosa PS18. The note with it: Pseudomonas aeruginosa; read-out: MIC.
In assay [9] the test system is Staphylococcus aureus. Nature of the assay: Antibacterial activity against penicillin G resistance Staphylococcus aureus. The note with it: Staphylococcus aureus; read-out: MIC.
The test system of assay [10] is Staphylococcus aureus. The assay can be described thus: Antibacterial activity against penicillin G susceptible Staphylococcus aureus. The note with it: Staphylococcus aureus; read-out: MIC.
Another assay concerns Streptococcus pneumoniae. Nature of the assay: Antibacterial activity against Streptococcus pneumoniae. To be noted: Streptococcus pneumoniae; read-out: MIC.
Another assay has as its system Serratia marcescens. The assay can be described thus: Antibacterial activity against Serratia marcescens SE3. The note with it: Serratia marcescens; read-out: MIC.
For another assay, the system named is Streptococcus pyogenes. The assay can be described thus: Antibacterial activity against Streptococcus pyogenes. The note with it: Streptococcus pyogenes; read-out: MIC.
Another assay relates to Enterococcus faecium. The assay can be described thus: Antibacterial activity against Enterococcus faecium. To be noted: Enterococcus faecium; read-out: MIC.
Where [11] appears, read: Pseudomonas aeruginosa, read-out: MIC.

Regarding `CO/N=C(\C(=O)N[C@@H]1C(=O)N2C(C(=O)[O-])=C(C[n+]3csc4c3CCC4)CS[C@H]12)c1csc(N)n1`, the MIC with Enterobacter cloacae [1] came out at 4 µg/mL (≈ 7.68 µM); in the assay on Escherichia coli [2] it was 0.06 µg/mL (≈ 0.115 µM); in the assay on Enterobacter cloacae [3], 0.25 µg/mL (≈ 0.48 µM); with Escherichia coli [4], 0.06 µg/mL (≈ 0.115 µM); with Klebsiella pneumoniae [5], 4 µg/mL (≈ 7.68 µM); with Klebsiella pneumoniae [6] it was 0.06 µg/mL (≈ 0.115 µM). The MIC was 8 µg/mL (≈ 15.4 µM) with Pseudomonas aeruginosa [7] (setting [11]); 32 µg/mL (≈ 61.5 µM) in the assay with Pseudomonas aeruginosa [8]; 4 µg/mL (≈ 7.68 µM) in the assay on Staphylococcus aureus [9]; 2 µg/mL (≈ 3.84 µM) with Staphylococcus aureus [10]; 0.06 µg/mL (≈ 0.115 µM) in the assay with Streptococcus pneumoniae; 0.125 µg/mL (≈ 0.24 µM) with Serratia marcescens. In addition, the MIC with Streptococcus pyogenes turned out to be 0.06 µg/mL (≈ 0.115 µM); with Enterococcus faecium it was 32 µg/mL (≈ 61.5 µM).
As for `CO/N=C(\C(=O)N[C@@H]1C(=O)N2C(C(=O)[O-])=C(C[n+]3ccsc3)CS[C@H]12)c1csc(N)n1`, the MIC is 32 µg/mL (≈ 66.6 µM) with Enterobacter cloacae [1]; 0.125 µg/mL (≈ 0.26 µM) in the assay with Escherichia coli [2]; 0.5 µg/mL (≈ 1.04 µM) in the assay with Enterobacter cloacae [3]; 0.125 µg/mL (≈ 0.26 µM) with Escherichia coli [4]; 8 µg/mL (≈ 16.6 µM) in the assay with Klebsiella pneumoniae [5]; 0.125 µg/mL (≈ 0.26 µM) in the assay on Klebsiella pneumoniae [6]. Also, the MIC in the assay with Pseudomonas aeruginosa [7] (setting [11]) was found to be 32 µg/mL (≈ 66.6 µM); with Pseudomonas aeruginosa [8] it was 16 µg/mL (≈ 33.3 µM); in the assay with Staphylococcus aureus [9] it was 8 µg/mL (≈ 16.6 µM); in the assay with Staphylococcus aureus [10], 4 µg/mL (≈ 8.32 µM); in the assay with Streptococcus pneumoniae it was 0.125 µg/mL (≈ 0.26 µM); in the assay with Serratia marcescens, 0.25 µg/mL (≈ 0.52 µM). Further, the MIC in the assay with Streptococcus pyogenes is 0.125 µg/mL (≈ 0.26 µM); in the assay with Enterococcus faecium it was 64 µg/mL (≈ 133 µM).
For the molecule `CO/N=C(\C(=O)N[C@@H]1C(=O)N2C(C(=O)[O-])=C(C[n+]3ccc4nc(C(C)(C)C)sc4c3)CS[C@H]12)c1csc(N)n1`, the MIC amounted to 16 µg/mL (≈ 27.2 µM) with Enterobacter cloacae [1]; 1 µg/mL (≈ 1.7 µM) with Enterobacter cloacae [3]; 4 µg/mL (≈ 6.81 µM) in the assay with Klebsiella pneumoniae [5]; 128 µg/mL (≈ 218 µM) in the assay with Pseudomonas aeruginosa [8]; 4 µg/mL (≈ 6.81 µM) in the assay on Staphylococcus aureus [9]; 1 µg/mL (≈ 1.7 µM) with Staphylococcus aureus [10]. In addition, the MIC with Streptococcus pneumoniae was 0.015 µg/mL (≈ 0.0255 µM); in the assay with Serratia marcescens it was 2 µg/mL (≈ 3.4 µM); in the assay on Streptococcus pyogenes it was 0.015 µg/mL (≈ 0.0255 µM); with Enterococcus faecium, 128 µg/mL (≈ 218 µM).
Regarding `CO/N=C(\C(=O)N[C@@H]1C(=O)N2C(C(=O)[O-])=C(C[n+]3ccc4sc(N)cc4c3)CS[C@H]12)c1csc(N)n1`, the MIC in the assay on Enterobacter cloacae [1] is 8 µg/mL (≈ 14.7 µM); in the assay on Escherichia coli [2], 0.015 µg/mL (≈ 0.0275 µM); in the assay with Enterobacter cloacae [3] it was 0.06 µg/mL (≈ 0.11 µM); with Escherichia coli [4], 0.03 µg/mL (≈ 0.055 µM); in the assay on Klebsiella pneumoniae [5] it was 2 µg/mL (≈ 3.67 µM); with Klebsiella pneumoniae [6], less than 0.008 µg/mL. The MIC in the assay on Pseudomonas aeruginosa [7] (setting [11]) is 1 µg/mL (≈ 1.83 µM); in the assay with Pseudomonas aeruginosa [8] it was 4 µg/mL (≈ 7.33 µM); with Staphylococcus aureus [9], 4 µg/mL (≈ 7.33 µM); in the assay on Staphylococcus aureus [10], 0.5 µg/mL (≈ 0.916 µM); with Streptococcus pneumoniae, less than 0.008 µg/mL; in the assay on Serratia marcescens it was 0.06 µg/mL (≈ 0.11 µM). Also, the values for the MIC in the assay on Streptococcus pyogenes and in the assay on Enterococcus faecium were 0.015 µg/mL (≈ 0.0275 µM) and greater than 128 µg/mL, respectively.
Take `CO/N=C(\C(=O)N[C@@H]1C(=O)N2C(C(=O)O)=C(COC(C)=O)CS[C@H]12)c1csc(N)n1` [CEFOTAXIME]: the MIC in the assay with Enterobacter cloacae [1] is 32 µg/mL (≈ 70.3 µM); in the assay with Escherichia coli [2], 0.03 µg/mL (≈ 0.0659 µM); in the assay with Enterobacter cloacae [3], 0.25 µg/mL (≈ 0.549 µM); with Escherichia coli [4], 0.03 µg/mL (≈ 0.0659 µM); in the assay with Klebsiella pneumoniae [5] it was 1 µg/mL (≈ 2.2 µM); with Klebsiella pneumoniae [6], 0.008 µg/mL (≈ 0.0176 µM). The MIC with Pseudomonas aeruginosa [7] (setting [11]) stood at 32 µg/mL (≈ 70.3 µM); with Pseudomonas aeruginosa [8], 64 µg/mL (≈ 141 µM); with Staphylococcus aureus [9], 16 µg/mL (≈ 35.1 µM); with Staphylococcus aureus [10], 2 µg/mL (≈ 4.39 µM); in the assay with Streptococcus pneumoniae, 0.015 µg/mL (≈ 0.0329 µM); in the assay with Serratia marcescens, 0.25 µg/mL (≈ 0.549 µM). Also, the results for the MIC in the assay on Streptococcus pyogenes and in the assay with Enterococcus faecium were 0.015 µg/mL (≈ 0.0329 µM) and greater than 128 µg/mL, respectively.
In the assay with Pseudomonas aeruginosa [7], `CO/N=C(\C(=O)N[C@@H]1C(=O)N2C(C(=O)[O-])=C(C[n+]3ccc(CC(=O)NO)cc3)CS[C@H]12)c1csc(N)n1` (stereo in doubt; 19) returned an MIC of 2 µg/mL (≈ 3.65 µM).
Regarding `CO/N=C(\C(=O)N[C@@H]1C(=O)N2C(C(=O)[O-])=C(C[n+]3ccc4[nH]c(-c5cccs5)nc4c3)CS[C@H]12)c1csc(N)n1`, the MIC in the assay with Enterobacter cloacae [3] turned out to be 0.5 µg/mL (≈ 0.838 µM); in the assay on Klebsiella pneumoniae [5] it was 4 µg/mL (≈ 6.7 µM); with Klebsiella pneumoniae [6], 0.015 µg/mL (≈ 0.0251 µM); in the assay with Pseudomonas aeruginosa [8], 128 µg/mL (≈ 215 µM); with Staphylococcus aureus [9] it was 8 µg/mL (≈ 13.4 µM); in the assay on Staphylococcus aureus [10], 2 µg/mL (≈ 3.35 µM). Moreover, the MIC is 0.008 µg/mL (≈ 0.0134 µM) in the assay with Streptococcus pneumoniae, 1 µg/mL (≈ 1.68 µM) with Serratia marcescens, 0.008 µg/mL (≈ 0.0134 µM) in the assay with Streptococcus pyogenes and 128 µg/mL (≈ 215 µM) in the assay with Enterococcus faecium.
For the molecule `CCC(C)Nc1nc2cc[n+](CC3=C(C(=O)[O-])N4C(=O)[C@@H](NC(=O)/C(=N\OC)c5csc(N)n5)[C@H]4SC3)cc2s1` (stereo partly specified), the MIC was found to be 2 µg/mL (≈ 3.32 µM) in the assay on Enterobacter cloacae [1]; 0.06 µg/mL (≈ 0.0995 µM) in the assay on Escherichia coli [2]; 0.25 µg/mL (≈ 0.415 µM) in the assay with Enterobacter cloacae [3]; 0.015 µg/mL (≈ 0.0249 µM) in the assay on Escherichia coli [4]; 2 µg/mL (≈ 3.32 µM) in the assay with Klebsiella pneumoniae [5]; 0.008 µg/mL (≈ 0.0133 µM) with Klebsiella pneumoniae [6]. Besides, the MIC turned out to be 16 µg/mL (≈ 26.5 µM) with Pseudomonas aeruginosa [7] (setting [11]); 128 µg/mL (≈ 212 µM) in the assay on Pseudomonas aeruginosa [8]; 0.5 µg/mL (≈ 0.83 µM) in the assay on Staphylococcus aureus [9]; 0.5 µg/mL (≈ 0.83 µM) in the assay with Staphylococcus aureus [10]; 0.008 µg/mL (≈ 0.0133 µM) in the assay with Streptococcus pneumoniae; 0.5 µg/mL (≈ 0.83 µM) with Serratia marcescens. Also, the results for the MIC with Streptococcus pyogenes and in the assay with Enterococcus faecium were 0.008 µg/mL (≈ 0.0133 µM) and 128 µg/mL (≈ 212 µM), respectively.
